± gives the standard deviation of the averaged measurements.
Assays:
Danio rerio embryo [1] = conditions: exposure time: 4 dpf
Description: (§1)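 Zebrafish embryos (UFZ-OBI strain) were exposed from 2 hpf for 48 h (2 dpf) or 96 h (4 dpf) at 28 °C; spontaneous tail coiling was scored at 25 hpf. Morphological features from automated image analysis (FishInspector), heart rate and locomotor response were fitted with drc models. Quantal endpoints were dichotomised at 2.5 SD from controls and fitted with a log-logistic model; heart rate, pigmentation and STC were normalised to the replicate control mean. Betamethasone was tested as betamethasone dipropionate, diflorasone as diflorasone diacetate.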

Danio rerio embryo [2] = conditions: exposure time: 2 dpf
Description: as §1

Danio rerio embryo [3] = test system: Danio rerio embryo
Description: as §1

Danio rerio embryo [4] = experiment: EC50 Eye size_Decrease; conditions: exposure time: 2 dpf
Description: as §1

Danio rerio embryo [5] = experiment: EC50 Curvature_Increase
Description: as §1

Danio rerio embryo [6] = experiment: EC50 Head size_Decrease; conditions: exposure time: 2 dpf
Description: as §1

Danio rerio embryo [7] = experiment: EC50 Body length_Decrease; conditions: exposure time: 2 dpf
Description: as §1

Danio rerio embryo [8] = experiment: EC50 Bladder size_Decrease; conditions: exposure time: 4 dpf
Description: as §1

Danio rerio embryo [9] = experiment: EC50 Pericard size_Increase
Description: as §1

Danio rerio embryo [10] = experiment: EC50 Head trunk angle_Decrease; conditions: exposure time: 2 dpf
Description: as §1

Danio rerio embryo [11] = experiment: EC10 Lack of SB; higher = less potent; conditions: exposure time: 4 dpf
Description: as §1

Danio rerio embryo [12] = experiment: EC20 Lack of SB; higher = less potent; conditions: exposure time: 4 dpf
Description: as §1

Danio rerio embryo [13] = experiment: EC20 Any effect; higher = less potent
Description: as §1

Danio rerio embryo [14] = experiment: EC10 Any effect; higher = less potent
Description: as §1

Danio rerio embryo [15] = experiment: EC20 Eye size_Decrease; higher = less potent; conditions: exposure time: 2 dpf
Description: as §1

Danio rerio embryo [16] = experiment: EC10 Eye size_Decrease; higher = less potent; conditions: exposure time: 2 dpf
Description: as §1

Danio rerio embryo [17] = experiment: EC10 Curvature_Increase; higher = less potent
Description: as §1

Danio rerio embryo [18] = experiment: EC20 Head size_Decrease; higher = less potent; conditions: exposure time: 2 dpf
Description: as §1

Danio rerio embryo [19] = experiment: EC20 Curvature_Increase; higher = less potent
Description: as §1

Danio rerio embryo [20] = experiment: EC10 Head size_Decrease; higher = less potent; conditions: exposure time: 2 dpf
Description: as §1

Danio rerio embryo [21] = experiment: EC20 Body length_Decrease; higher = less potent; conditions: exposure time: 2 dpf
Description: as §1

Danio rerio embryo [22] = experiment: EC10 Body length_Decrease; higher = less potent; conditions: exposure time: 2 dpf
Description: as §1

Danio rerio embryo [23] = experiment: EC10 Pigmentation decrease; higher = less potent; conditions: exposure time: 2 dpf
Description: as §1

Danio rerio embryo [24] = experiment: EC10 Bladder size_Decrease; higher = less potent; conditions: exposure time: 4 dpf
Description: as §1

Danio rerio embryo [25] = experiment: EC20 Pigmentation decrease; higher = less potent; conditions: exposure time: 2 dpf
Description: as §1

Danio rerio embryo [26] = experiment: EC20 Bladder size_Decrease; higher = less potent; conditions: exposure time: 4 dpf
Description: as §1

Danio rerio embryo [27] = experiment: EC20 Pericard size_Increase; higher = less potent
Description: as §1

Danio rerio embryo [28] = experiment: EC10 Pericard size_Increase; higher = less potent
Description: as §1

Danio rerio embryo [29] = experiment: EC10 Head trunk angle_Decrease; higher = less potent; conditions: exposure time: 2 dpf
Description: as §1

Danio rerio embryo [30] = experiment: EC20 Head trunk angle_Decrease; higher = less potent; conditions: exposure time: 2 dpf
Description: as §1

Danio rerio embryo [31] = experiment: spontaneous tail coiling frequency (coils/min/embryo); higher = more spontaneous movement; conditions: 25 hpf
Description: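 Spontaneous tail coilings of zebrafish embryos exposed from 2 hpf were recorded at 24-25 hpf in 1-min videos and detected by a KNIME workflow from grey-value variance. Betamethasone was tested as the dipropionate, diflorasone as the diacetate.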

COC(=O)Nc1nc2ccccc2[nH]1 [Carbendazim]
Conditions	EC10 Bladder size Decrease [nM]	EC10 Body length Decrease [nM]	EC10 Eye size Decrease [nM]	EC10 Head size Decrease [nM]	EC10 Head trunk angle Decrease [nM]	EC10 Lack of SB [nM]	EC10 Pigmentation decrease [nM]	EC20 Bladder size Decrease [nM]	EC20 Body length Decrease [nM]	EC20 Eye size Decrease [nM]	EC20 Head size Decrease [nM]	EC20 Head trunk angle Decrease [nM]	EC20 Lack of SB [nM]	EC20 Pigmentation decrease [nM]	EC50 Bladder size Decrease [nM]	EC50 Body length Decrease [nM]	EC50 Eye size Decrease [nM]	EC50 Head size Decrease [nM]	EC50 Head trunk angle Decrease [nM]	EC50 Lack of SB [nM]	EC50 Pigmentation decrease [nM]
Danio rerio embryo [1]	–	–	–	–	–	–	–	–	–	–	–	–	–	–	–	–	–	–	–	2700	–
Danio rerio embryo [2]	–	–	–	–	–	–	–	–	–	–	–	–	–	–	–	–	–	–	–	–	3340
Danio rerio embryo [4]	–	–	–	–	–	–	–	–	–	–	–	–	–	–	–	–	3300	–	–	–	–
Danio rerio embryo [6]	–	–	–	–	–	–	–	–	–	–	–	–	–	–	–	–	–	3510	–	–	–
Danio rerio embryo [7]	–	–	–	–	–	–	–	–	–	–	–	–	–	–	–	3040	–	–	–	–	–
Danio rerio embryo [8]	–	–	–	–	–	–	–	–	–	–	–	–	–	–	2250	–	–	–	–	–	–
Danio rerio embryo [10]	–	–	–	–	–	–	–	–	–	–	–	–	–	–	–	–	–	–	3470	–	–
Danio rerio embryo [11]	–	–	–	–	–	2300	–	–	–	–	–	–	–	–	–	–	–	–	–	–	–
Danio rerio embryo [12]	–	–	–	–	–	–	–	–	–	–	–	–	2440	–	–	–	–	–	–	–	–
Danio rerio embryo [15]	–	–	–	–	–	–	–	–	–	2900	–	–	–	–	–	–	–	–	–	–	–
Danio rerio embryo [16]	–	–	2690	–	–	–	–	–	–	–	–	–	–	–	–	–	–	–	–	–	–
Danio rerio embryo [18]	–	–	–	–	–	–	–	–	–	–	3050	–	–	–	–	–	–	–	–	–	–
Danio rerio embryo [20]	–	–	–	2810	–	–	–	–	–	–	–	–	–	–	–	–	–	–	–	–	–
Danio rerio embryo [21]	–	–	–	–	–	–	–	–	2950	–	–	–	–	–	–	–	–	–	–	–	–
Danio rerio embryo [22]	–	2900	–	–	–	–	–	–	–	–	–	–	–	–	–	–	–	–	–	–	–
Danio rerio embryo [23]	–	–	–	–	–	–	2530	–	–	–	–	–	–	–	–	–	–	–	–	–	–
Danio rerio embryo [24]	977	–	–	–	–	–	–	–	–	–	–	–	–	–	–	–	–	–	–	–	–
Danio rerio embryo [25]	–	–	–	–	–	–	–	–	–	–	–	–	–	2800	–	–	–	–	–	–	–
Danio rerio embryo [26]	–	–	–	–	–	–	–	1330	–	–	–	–	–	–	–	–	–	–	–	–	–
Danio rerio embryo [29]	–	–	–	–	2730	–	–	–	–	–	–	–	–	–	–	–	–	–	–	–	–
Danio rerio embryo [30]	–	–	–	–	–	–	–	–	–	–	–	2980	–	–	–	–	–	–	–	–	–

Conditions	EC10 Any effect [nM]	EC10 Curvature Increase [nM]	EC10 Pericard size Increase [nM]	EC20 Any effect [nM]	EC20 Curvature Increase [nM]	EC20 Pericard size Increase [nM]	EC50 Any effect [nM]	EC50 Curvature Increase [nM]	EC50 Pericard size Increase [nM]	spontaneous tail coiling frequency
Danio rerio embryo [3], exposure time: 2 dpf	–	–	–	–	–	–	3050	–	–	–
Danio rerio embryo [3], exposure time: 4 dpf	–	–	–	–	–	–	3090	–	–	–
Danio rerio embryo [5], exposure time: 2 dpf	–	–	–	–	–	–	–	3270	–	–
Danio rerio embryo [5], exposure time: 4 dpf	–	–	–	–	–	–	–	3260	–	–
Danio rerio embryo [9], exposure time: 2 dpf	–	–	–	–	–	–	–	–	3430	–
Danio rerio embryo [9], exposure time: 4 dpf	–	–	–	–	–	–	–	–	2990	–
Danio rerio embryo [13], exposure time: 2 dpf	–	–	–	2980	–	–	–	–	–	–
Danio rerio embryo [13], exposure time: 4 dpf	–	–	–	2850	–	–	–	–	–	–
Danio rerio embryo [14], exposure time: 2 dpf	2930	–	–	–	–	–	–	–	–	–
Danio rerio embryo [14], exposure time: 4 dpf	2720	–	–	–	–	–	–	–	–	–
Danio rerio embryo [17], exposure time: 2 dpf	–	2710	–	–	–	–	–	–	–	–
Danio rerio embryo [17], exposure time: 4 dpf	–	2680	–	–	–	–	–	–	–	–
Danio rerio embryo [19], exposure time: 2 dpf	–	–	–	–	2900	–	–	–	–	–
Danio rerio embryo [19], exposure time: 4 dpf	–	–	–	–	2880	–	–	–	–	–
Danio rerio embryo [27], exposure time: 2 dpf	–	–	–	–	–	3110	–	–	–	–
Danio rerio embryo [27], exposure time: 4 dpf	–	–	–	–	–	2760	–	–	–	–
Danio rerio embryo [28], exposure time: 2 dpf	–	–	2940	–	–	–	–	–	–	–
Danio rerio embryo [28], exposure time: 4 dpf	–	–	2630	–	–	–	–	–	–	–
Danio rerio embryo [31], 0.23 µM	–	–	–	–	–	–	–	–	–	2.14
Danio rerio embryo [31], 0.344 µM	–	–	–	–	–	–	–	–	–	1.91
Danio rerio embryo [31], 0.517 µM	–	–	–	–	–	–	–	–	–	2.25
Danio rerio embryo [31], 0.775 µM	–	–	–	–	–	–	–	–	–	2.51 ± 0.64
Danio rerio embryo [31], 1.16 µM	–	–	–	–	–	–	–	–	–	1.06
Danio rerio embryo [31], 1.162 µM	–	–	–	–	–	–	–	–	–	2.68
Danio rerio embryo [31], 1.74 µM	–	–	–	–	–	–	–	–	–	1.81
Danio rerio embryo [31], 1.743 µM	–	–	–	–	–	–	–	–	–	1.56
Danio rerio embryo [31], 2.615 µM	–	–	–	–	–	–	–	–	–	2.98
Danio rerio embryo [31], 2.62 µM	–	–	–	–	–	–	–	–	–	2.11
Danio rerio embryo [31], 3.138 µM	–	–	–	–	–	–	–	–	–	4.11
Danio rerio embryo [31], 3.661 µM	–	–	–	–	–	–	–	–	–	3.75

Reference: the supplement of paper PMC9013687
